# From patent US20220267394A1, “COMPOUNDS FOR INDUCING TISSUE FORMATION AND USES THEREOF” (HISTIDE AG, priority 2015, published 2022)
# Where no end group is shown, it is not given here.
# Key:
# [1] = Stability of non-covalent deposit of FITC-labelled peptides on apatite ceramics or type-I collagen sponge; assay type: physicochemical; details: non-covalent coating, after 3, 7 or 10 days
# Method: Non-covalent modifications of the materials were performed in air atmosphere at room temperature. The non-covalent coating strategy consisted in using a mixture of inducing peptide (SEQ ID NO: 23; concentration of 1×10^−3M) with an apatite ceramics implant or a mixture of inducing peptide (SEQ ID NO: 22; concentration of 1×10^−3M) with a type-I collagen sponge. The non-covalently coated conventional materials were characterized by using fluorescent peptides (Here SEQ ID NO: 22 and 23 covalently bound to fluorescein isothiocyanate (FITC), FIG. 6). The results shown here in FIG. 6 were obtained from experiments performed with apatite ceramics and a type-I collagen sponge. […] Indeed, after 3, 7 or 10 days, the osteogenic peptides were still coupled to the ceramics or the type-I collagen (FIGS. 7a and b).
# [2] = tested on: Human Hematopoeitic Stem Cells; assay: Differentiation of human hematopoietic stem cells: CD34+ expression by immunostaining; assay type: cell-based; details: peptides in solution in the cell culture media, 400 ng/mL, 48 hours
# Source text: (§1) The following starting materials and reagents were used: • Apatite ceramics (also called apatite or ceramic in the present invention) were synthetized as described in Mater Res. 2004; 7(4): 625-630. • Titanium was obtained from Goodfellow®. • Hydrogel (poly(acrylamide-co-acrylic acid) gel) was synthetized as described in Langmuir 2011; 27(22):13635-42. • PEEK was obtained from Goodfellow®. • PET (Poly(ethylene terephthalate) was obtained from Goodfellow®. • Type-I collagen sponge was obtained from Sigma®. • Hexane was obtained from Sigma®. • 3-succinimidyl-3-maleimidopropionate (SMP) was obtained from Sigma®. • DMF was obtained from Sigma®. • PBS 1× was obtained from Gibco®. • 3-(ethoxydimethylsilyl)propylamine was obtained from Sigma®. • Ammonium persulfate was obtained from Biorad®. • N,N,N′,N′-tetramethylethylenediamine was obtained from Aldrich®. • Acrylamid was obtained from Merck®. • Acrylic acid was obtained from Merck®. • N,N-methylene-bis-acrylamide was obtained from Merck®. • NaOH was obtained from Aldrich®. • N,N,N′,N′-tetramethylethylenediamine was obtained from Aldrich®. • Dimethylaminopropyl-3-ethylcarbodiimide hydrochloride was obtained from Aldrich®. • N-hydroxysuccinimide was obtained from Aldrich®. • 2-(N-morpholino)-ethane sulfonic acid was obtained from Aldrich®. • MilliQ water: is water characterised in terms of resistivity (typically 18.2 MΩ·cm at 25° C.). • Low glucose Dulbecco's Modified Eagle Medium (DMEM) was obtained from Invitrogen® • Minimum Essential Medium Eagle without ascorbic acid (αMEM) was obtained from Invitrogen®. • All of the cell culture experiments were carried out without any serum in the medium for the first 8 hours of culture. • Osteoblast progenitors or precursor osteoblasts: MC3T3-E1 cells were obtained from ATCC®. These cells were cultured in Alpha-MEM medium supplemented with 10% fetal calf serum (FCS) and 1% penicillin/streptomycin. All cells were used at a low passage number (passage 7), were subconfluently cultured and were seeded at 10^4 cells/cm^2 for the purpose of the experiments. • Human bone marrow Mesenchymal Stem Cells (hMSCs) were obtained from Lonza®. These cells were cultured in Alpha-MEM supplemented with 10% (v/v) FBS and 1% penicillin/streptomycin and incubated in a humidified atmosphere containing 5% (v/v) CO2 at 37° C. All cells were used at a low passage number (passage 2 to 4), were subconfluently cultured and were seeded at 10^4 cells/cm^2 for the purpose of the experiments. • Human adipose Mesenchymal Stem Cells (haMSCs) were obtained from Lonza®. These cells were cultured in Alpha-MEM supplemented with 10% (v/v) FBS and 1% penicillin/streptomycin and incubated in a humidified atmosphere containing 5% (v/v) CO2 at 37° C. All cells were used at a low passage number (passage 3 to 4), were subconfluently cultured and were seeded at 10^4 cells/cm^2 for the purpose of the experiments. • Mouse Hair Follicle Stem Cells were isolated and cultured as described in Methods Mol Biol. 2010; 585:401-20. • Neuron cells are Neuronal Schwann Cells obtained from ATCC®. These cells were cultured in Dulbecco's Modified Eagle's Medium supplemented with 10% (v/v) FBS and 1% penicillin/streptomycin and incubated in a humidified atmosphere containing 5% (v/v) CO2 at 37° C. All cells were used at a low passage number (passage 6-8), were subconfluently cultured and were seeded at 10^4 cells/cm^2 for the purpose of the experiments. • Human umbilical-vein endothelial cells (HUVECs) were purchased from Promocell®. HUVECs were isolated and grown on gelatin coated culture flasks in a complete HUVEC culture medium (IMDM (Invitrogen, France) supplemented with 20% (v/v) fetal bovine serum (FBS) (PAA, France) and 0.4% (v/v) EC growth supplement/heparin kit (Promocell, France)). Cells were subcultured by using trypsin/EDTA (Invitrogen, France) and maintained in a humidified atmosphere containing 5% CO2 at 37° C. These cells were used at a passage number 3 to 5 for the purpose of the experiments. […]
# Hair Follicle Stem Cells = assay: Loss of quiescence and activation of hair follicle stem cells on 73 kPa hydrogels (Sox2, BMP-6 release); assay type: cell-based, mouse; details: 73 kPa hydrogels covalently modified with peptides
# Source text: as §1, with “C.” for “C. All cells were used at a low passage number (passage 3 to 4), were subconfluently cultured and were seeded at 10^4 cells/cm^2 for the purpose of the experiments. • Mouse Hair Follicle Stem Cells were isolated and cultured as described in Methods Mol Biol. 2010; 585:401-20. • Neuron cells are Neuronal Schwann Cells obtained from ATCC®. These cells were cultured in Dulbecco's Modified Eagle's Medium supplemented with 10% (v/v) FBS and 1% penicillin/streptomycin and incubated in a humidified atmosphere containing 5% (v/v) CO2 at 37° C. All cells were used at a low passage number (passage 6-8), were subconfluently cultured and were seeded at 10^4 cells/cm^2 for the purpose of the experiments. • Human umbilical-vein endothelial cells (HUVECs) were purchased from Promocell®. HUVECs were isolated and grown on gelatin coated culture flasks in a complete HUVEC culture medium (IMDM (Invitrogen, France) supplemented with 20% (v/v) fetal bovine serum (FBS) (PAA, France) and 0.4% (v/v) EC growth supplement/heparin kit (Promocell, France)). Cells were subcultured by using trypsin/EDTA (Invitrogen, France) and maintained in a humidified atmosphere containing 5% CO2 at 37° C. These cells were used at a passage number 3 to 5 for the purpose of the experiments.”
# hMSCs [3] = assay: Loss of stemness: STRO-1 expression by immunostaining; assay type: cell-based, human
# Summary of the method: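 hMSCs cultured on plastic with GFR-binding peptides in solution (some sequences tested with a bioactive carrier), then fixed, permeabilized and immunostained for Stro-1. Stro-1-positive contact number and area quantified by thresholded image analysis, minimum 30 cells per condition.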
# hMSCs [4] = assay: CD-105 expression by immunostaining; assay type: cell-based, human; details: Table 7, previously reported peptides in solution (not combined with a bioactive carrier)
# Method: For this type of quantification the freeware image analysis ImageJ® software was used. The raw image was first converted to an 8-bit file, and then the unsharp mask feature was used (settings 1:0.2) to remove the image background (rolling ball radius 10). After smoothing, the resulting image, which appears similar to the original photomicrograph but with minimal background, was then converted to a binary image by setting a threshold. Threshold values were determined empirically by selecting a setting, which gave the most accurate binary image for a subset of randomly selected photomicrographs. The cell area was determined by manual delineation on raw fluorescent images. Total contact area and mean contact area per cell were calculated by “analyse particules” in ImageJ®. A minimum of 30 cells per condition were analyzed. Stro-1, CD-34+, and CD-105 expressions were determined using this procedure.
# Likewise, using the method detailed in the description, the RMSD of another 27 previously reported peptide sequences have been determined (Table 7) and correlated with the expressions of STRO-1 and CD-105 in solution. […] Data were obtained with peptides in solution (i.e. not combined with a bioactive carrier).
# hMSCs [5] = assay: Cartilage regeneration: chondrocyte differentiation of hMSCs on 14 kPa hydrogels (Sox9, Aggrecan); assay type: cell-based, human; details: 14 kPa hydrogels covalently modified with peptides, 96 hours
# Method: Total RNA was extracted by using the RNeasy total RNA kit (Qiagen®) according to the manufacturer's instructions. Purified total RNA was used as a template in order to make cDNA by a reverse transcription reaction (Gibco Brl®) with random primers (Invitrogen®). The cDNA was then used as a template for a real-time PCR amplification in the presence of SYBR green reagents (Bio-Rad®) by using a thermocycler (iCycler, Biorad®). Data were analyzed with the iCycler IQ™® software and compared by the ΔΔCt method. […]
# Total RNA was extracted by using the RNeasy Mini Kit (Qiagen) and […] RNA was used for cDNA synthesis with AMV kit (Invitrogen®) according to the manufacturer' instructions. Semi-quantitative reverse transcriptase-polymerase chain reaction (RT-PCR) was performed with Taq DNA Polymerase (Invitrogen®) in a thermocycler (Bio-Rad®). […] The PCR products were analyzed on 2% agarose gels. For the Aggrecan gene, the PCR bands were densitometrically quantified by using the BioCapt software (Vilber). […]
# It was then verified that these hMSCs cultured on the covalently modified hydrogels were differentiated into chondrocyte cells by analyzing the expression of the chondrocyte gene biomarker: Aggrecan. […] For that a semi-quantitative RT-PCR was performed as described in the Methods section for the Aggrecan gene and a Quantitative Real Time PCR for Sox9.
# [6] = Table 8, SEQ ID NO: 1 to 49 tested in combination with a bioactive carrier (titanium, ceramics, collagen, etc.)
# [7] = Table 7, previously reported peptides in solution (not combined with a bioactive carrier)
substance,measurement,setting,value
"GTPGPKVPKPSSAPTQLSAISTLYLDEYDKVVLKNYQNMAVR (GTPGPKVPKPXXAPTQLSAISTLYLDEYDKVVLKNYQNMAVR; GFR-binding peptide; MOD_RES (11), (12): Xaa is C or S) [SEQ ID NO: 23]",release of peptide from apatite ceramics over time,[1],no significant release
2150 (PTSSAPTDLRSVKMAKVEIVRKKPIFKEVQVDMVVKASGSH; GFR-binding peptide) [compound 2150],CD34+ Expression (%),[2],26%
2155 (EPSSSRVRLEPLTTLYYGGGGGGGEQLSNVVEEHSKSS; GFR-binding peptide) [compound 2155],CD34+ Expression (%),[2],29%
2149 (VSQAARPVQTRKIDDMGVPTKKATVAAVKS; GFR-binding peptide) [compound 2149],CD34+ Expression (%),[2],28%
"CGIPEPSSVPEKMSSLSILFFDENKNVVLKVYPNM (CGIPEPXXVPEKMSSLSILFFDENKNVVLKVYPNM; GFR-binding peptide; MOD_RES (7), (8): Xaa is C or S) [SEQ ID NO: 41]",BMP-6 release in the cell culture medium,Hair Follicle Stem Cells,decrease
same,Sox2 protein expression,Hair Follicle Stem Cells,increase
42 (CGIPEPSSVPEKTSSLSLLFFDENKNVVLKVYPNM; not fully specified; ends and bridges not checked) [compound 42],BMP-6 release in the cell culture medium,Hair Follicle Stem Cells,decrease
same,Sox2 protein expression,Hair Follicle Stem Cells,increase
same,STRO-1 expression (%),hMSCs [3]; [6],28%
2151 (PTSSVPTGGRSVKMAKVDKGVVTYKEVQVMVVAESKSS; GFR-binding peptide) [compound 2151],CD34+ Expression (%),[2],24%
2215 (VPQTLDPLPIIYYVGRNVRVEQLSNMVVRA; Comparative sequence) [compound 2215],STRO-1 expression (%),hMSCs [3]; [7],71%
same,CD-105 expression (%),hMSCs [4],68%
"CKIPKASSVPTELEPLPIVYYVGRKPKVEQLSNMIVRS (CKIPKAXXVPTELEPLPIVYYVGRKPKVEQLSNMIVRS; GFR-binding peptide; MOD_RES (7), (8): Xaa is C or S) [SEQ ID NO: 36]",Sox9 protein expression,hMSCs [5],expression of the Sox9 protein was observed
2230 (CCVPERLSPISVLFFDNEDNVVLRHYEDMVVDECGCR; Comparative sequence) [compound 2230],STRO-1 expression (%),hMSCs [3]; [7],81%
same,CD-105 expression (%),hMSCs [4],78%
"2240 (KPCCAPTELSAISVLYFDDSSNVILKKYEDMVVEACGCR; Peptide reported in US20050250936, SEQ ID NO:119) [compound 2240]",STRO-1 expression (%),hMSCs [3]; [7],73%
same,CD-105 expression (%),hMSCs [4],69%
"WWFWGKVPKPSSAPTQLSAISTLYLDEYDKVVLKNYQNMVVR (WWFWGKVPKPXXAPTQLSAISTLYLDEYDKVVLKNYQNMVVR; GFR-binding peptide; MOD_RES (11), (12): Xaa is C or S) [SEQ ID NO: 22]",release of peptide from type-I collagen sponge over time,[1],no significant release
2153 (KASSSRVKMSNITVQIMRIKPHQGQHIGEMSVVEEHASGSH; GFR-binding peptide) [compound 2153],CD34+ Expression (%),[2],22%
2156 (APVKMEPLPTVYYDDMGVPTEQLSNDMVEESGSL; GFR-binding peptide) [compound 2156],CD34+ Expression (%),[2],25%
"2235 (APTALSAISMLYFDESGNVVLRQYEDMVVEG; Peptide reported in US20120244575, SEQ ID NO:4400) [compound 2235]",STRO-1 expression (%),hMSCs [3]; [7],77%
same,CD-105 expression (%),hMSCs [4],63%
2154 (VPTAAEPLTMLYYEIVRKKPIFEQLSNMVEHS; GFR-binding peptide) [compound 2154],CD34+ Expression (%),[2],21%
2152 (IPKASSVPQSSSNITMQIMGGGGGGGIGEMSSSVKSSGSL; GFR-binding peptide) [compound 2152],CD34+ Expression (%),[2],30%
2238 (CCAPTELSAISVLYFDDSSNVILKKYEDMVVEACGCR; Comparative sequence) [compound 2238],STRO-1 expression (%),hMSCs [3]; [7],76%
same,CD-105 expression (%),hMSCs [4],72%
37 (CASAAPSSVPQALEPLPIVYYVGRTPKVEQLSNMIVRSSK; not fully specified; ends and bridges not checked) [compound 37],STRO-1 expression (%),hMSCs [3]; [6],21%
same,Sox9 protein expression,hMSCs [5],expression of the Sox9 protein was observed
2147 (IPKASSAPVGQRPVQMRKIDKGVVTYKKATVSSVEESGSL; GFR-binding peptide) [compound 2147],CD34+ Expression (%),[2],27%
2148 (KASSVPQEERPVQMRKIGGGGGGGKKATVMIVRSSKSS; GFR-binding peptide) [compound 2148],CD34+ Expression (%),[2],32%
2157 (EPSSVSQAAEPLPIVYYRIKPHQGQHEQLSNMIVKSSKSS; GFR-binding peptide) [compound 2157],CD34+ Expression (%),[2],23%
